We go through four compounds from patent publication US6905698B1, “Particulate carrier for biocide formulations” (Ineos Silicas Limited, priority 1998, dated 2005).

The structures appear in SMILES notation. ≈ marks a conversion by molar mass, not a printed value. Like-named read-outs stand apart in the source and are kept apart here. A value given as a limit tells only on which side of the number the result lay.

The subject of series [1] is Cladosporium cladosporioides. In words: Water leaching of paint discs: zone of inhibition before and after 24 hours leach. The conditions noted are these: acrylic high build paint; for Zone of Inhibition After Leaching: 24 hours water leach. The series is classed as cell-based. The method, then: The method allows an assessment of the level of protection afforded by incorporating a biocide into a paint formulation. Filter discs (Whatman International Limited, Maidstone, Kent), Type 54, hardened 42.5 mm diameter were brush painted on one side of the disc with the test paints (24 hours between coats, 3 replicates per paint) to give an average loading of 0.05 g dried paint. The painted discs were cured at 60° C. for 2 days. One set of discs is then washed with a large volume of distilled water (20 liters) under controlled flow for 24 hours at ambient temperatures.
A freeze dried ampoule of Cladosporium cladosporioides (strain no. FS33 ex. Paint Research Association, Teddington, UK) was revived on potato dextrose agar (Oxoid Limited, Basingstoke, UK). A spore innoculum was prepared from the resultant sporing culture (5-7 days growth at 25° C.) by adding 5 ml of sterile distilled water to the surface of the culture on the agar and gently rubbing the surface with a sterile loop to dislodge the spores' mycelium. The resultant suspension was filtered through sterile wool and the filtrate used to seed molten (45° C.) potato dextrose agar prior to pouring into sterile Petri dishes.
Each painted disc was placed on the surface of the seeded agar plate, and the plates placed in a fridge (6-8° C.) for 24 hours to allow diffusion of the biocide. After this period, they were transferred to an incubator at 25° C. for five days. The diameter of the disc, plus any zone of inhibition (no fungal growth) around the discs was measured. An average of the three replicates is taken as a data point.
The biocidal efficiency of the two carriers (SD 2209 and SD 1866) loaded, at 30% by weight, with OIT and DCOIT in the acrylic high build formulation was compared before, and after, a 24 hours leach using procedure (ix) described hereinbefore. The paints containing the biocide carrying particles and those where the biocide was incorporated as the free biocide where used in the example.

Series [2] has as its system standard mixed inoculum of BS 3900: Part G6: 1989 with Alternaria altarnata. In words: Prolonged protection on paint panels (BS 3900: Part G6: 1989). Format: cell-based. The following applies: weathered panels.
For series [3] the test system is unchanged. The series is described as above. The series is classed as cell-based. The conditions noted are these: weathered panels; for Fungal growth rating % Cover D28: Day 28; for Fungal growth rating % Cover D84: Day 84. The method, then: Candidate carrier materials dispersed in water borne acrylic emulsion paint were subjected to the procedure of BS 3900: Part G6: 1989 to assess their long term fungicidal efficiency when compared with the biocide added directly to the paint.
Masterboard panels (150 mm×150 mm) were brush coated on one side with the test paints (2 coats, 24 hours between coats) and cured at 60° C. for two days. The coated panels were then weathered in a QUV apparatus (The Q-Panel Co. Bolton, UK) under the following conditions: 125±5 hours exposure to UVA (340 nm) at 40° C. with 1 hour water spray at approximately 24 hour intervals (5 in total). During the water spray the temperature cools to about 20° C.
After weathering the panels were cut into two equal samples and subjected to the procedure described in BS 3900: Part G6:1989. The control paint was the test paint without biocide. Alternaria altarnata was included in the standard mixed inoculum of BS 3900: Part G6: 1989.
Visual examination of the panels was carried out after 28, 36 and 84 days. In accordance with the standard procedure, the percentage cover of each panel by fungal growth was assessed.
Following on from the observations of Example 4, the two carriers SD 2209 and SD 1866 loaded, at 30% by weight, with OIT and DCOIT were incorporated into the paint formulation specified in Example 4 and subjected to BS 3900: Part G6 as described in procedure (x) hereinbefore to assess their long term film fungicidal efficiency in comparison with OIT and DCOIT added directly to the paint.
Masterboard panels (150 mm×150 mm) were brush coated on one side with the test paints (2 coats, 24 hours between coats) and cured at 60° C. for two days. The coated panels were then weathered in a QUV apparatus as described hereinbefore in procedure (x). After weathering the panels were cut into two equal samples and subjected to the procedure described in BS 3900: Part G6: 1989. The panels were exposed for 28, 36, and 84 days, in accordance with the standard procedure, and the percentage cover of each panel by fungal growth was assessed at these stages.

Series [4] deals with Cladosporium cladosporioides. In words: Surface growth on painted discs after a further 14 days incubation. The conditions noted are these: biocide 300 ppm; for Zone of Inhibition After Leaching (surface of paint discs examined for growth): after water leaching. Format: cell-based. The method, then:
To further distinguish performance the inoculated petri dishes containing the painted discs were incubated for a further 14 days so as to examine the extent of encroachment of the fungi into the surface of the paint film. The dishes were removed from the incubator and the surface of the paint discs examined for growth.

Series [5] is described as follows: U.V. irradiation: biocide remaining.
Method: (§1) The loaded biocides, together with the stock solutions, were spread on petri dishes and either placed in an incubator at 60° C. or exposed to U.V. irradiation in a Microscal unit (Miscoscal Limited, London) fitted with a 500 W high pressure mercury/tungsten lamp (wavelength>300 nm) operating at temperature 50° C. and a relative humidity in the region of 50%. […] Samples were withdrawn from the petri dishes undergoing thermal treatment and exposure to U.V. irradiation on a regular basis over a period in the region of 50 days. The amount of biocide remaining in each withdrawn sample was determined at the time of withdrawal using second derivative U.V.-visible Spectroscopy. The amount of biocide remaining in the stock solutions was determined by Gas Chromatography Mass Spectrometry. Relative peak heights corresponding to the residual parts of OIT, CIT and MIT were used to determine the concentrations of biocide in each sample.
The conditions of series [6]: cited from earlier work.
Series [7] in a line: Thermal ageing at 60° C.: biocide remaining. The following applies: Thermal Ageing 60° C.
Method: as §1
For another series, the system named is Aureobasidium pullulans. In words: Minimum Inhibition Concentration (MIC). Format: cell-based. The method, then: The retention factor, R, referred to above is determined from the equation R=A/P, where A represents the percentage active ingredient by weight remaining in the pore system after contacting with water according to the conditions defined herein and P represents the potency (Minimum Inhibition Concentration in mg of active ingredient per liter) of the biocide determined with respect to the reference microorganism Aureobasidium pullulans using the procedure defined herein.
The usefulness of the inorganic carrier particle will depend on the particular biocide being used, its effectiveness at various activity levels and the quantity of biocide (active ingredient) adsorbed and retained in the pore system. […]
The minimum inhibition concentration (MIC) is a measure of the potency of a biocide and comprises the minimum concentration (ppm) of a biocide active or formulation (normally quoted in terms of the active ingredient) determined experimentally in vitro to prevent the growth of a pure culture of a reference microorganism. […]
A standardised culture of the microbe under lest is prepared. […] The concentration at which no growth is detected is the minimum inhibition concentration (MIC) for that particlar biocide and reference organism. […]

For series [8] the following is noted: 50.98 %.
Method: as §1
For series [9] the following is noted: 50.98 %. The source holds these as a separate data set.
Method: as §1

Turning to `CCCCCCCCn1sc(Cl)c(Cl)c1=O` [DCOIT, 4,5-Dichloro-2-Octyl-4-Isothiazolin-3-one], the results for the “Zone of Inhibition Before Leaching” value in series [1] (biocide 300 ppm), in series [1] (biocide 1,200 ppm) and in series [1] (biocide 4,000 ppm) were 22 mm, 25 mm and 38 mm, respectively. Moreover, the results for the “Zone of Inhibition After Leaching” value in series [1] (biocide 300 ppm), in series [1] (biocide 1,200 ppm) and in series [1] (biocide 4,000 ppm) were “OVERGROWTH”, 1 mm and 2 mm, respectively. Also, the “Fungal growth rating % Cover D56” value stood at 85 % cover in series [2] (biocide 300 ppm), 55 % cover in series [2] (biocide 1,200 ppm) and 0 % cover in [2] (biocide 4,000 ppm). Also, the “Fungal growth rating % Cover D28” value in series [3] (biocide 300 ppm) amounted to 23 % cover; in [3] (biocide 1,200 ppm), 8 % cover; in [3] (biocide 4,000 ppm) it was 0 % cover. Besides, the figures for the “Fungal growth rating % Cover D84” value in series [3] (biocide 300 ppm), in [3] (biocide 1,200 ppm) and in series [3] (biocide 4,000 ppm) were 85 % cover, 68 % cover and 5 % cover, respectively. In [4], the “Zone of Inhibition Before Leaching (surface of paint discs examined for growth)” value is “None”. Also, the “Zone of Inhibition After Leaching (surface of paint discs examined for growth)” value in series [4] is reported as “Growth”.

In the case of `Cn1sccc1=O` [MIT, 2-Methyl-4-isothiazolin-3-one], the “amount of original biocide remaining (MIT, CIT, MIT/CIT)” value in series [5] (0 days) is given as 100; in series [5] (7 days) it was 78; in series [5] (25 days), 69; in series [5] (32 days), 62; in series [5] (39 days) it was 50; in series [5] (55 days), 24. Besides, the “amount of original biocide remaining (MIT, CIT, MIT/CIT)” value is listed as 100 in series [7] (0 days); 95 in series [7] (7 days); 90 in series [7] (12 days); 80 in [7] (18 days); 50 in [7] (40 days). Besides, the “water solubility relative to OIT, in words” value in series [6] is reported as “more water soluble than OIT”.

The term MIC denotes the lowest concentration found to suppress growth. A high value points to a less susceptible organism. In the case of `CCCCCCCCn1sccc1=O` [OIT, 2-Octyl-4-Isothiazolin-3-one], the MIC in the series with Aureobasidium pullulans (Aureobasidium pullulans, reference microorganism Aureobasidium pollulens) was 36 µg/mL (≈ 169 µM). In addition, the “Minimum Inhibition Concentration (MIC)” value in the series with Aureobasidium pullulans (reference microorganism Aureobasidium pullulans) is listed as 36 mg of active ingredient per liter. Also, the “amount of original biocide remaining (OIT)” value in series [8] (0 h) is 100; in [8] (288 h), 78; in series [8] (432 h), 65; in series [8] (960 h) it was 50; in series [9] (0 h), 100; in series [9] (336 h) it was 17. Further, in series [9] (1008 h), the “amount of original biocide remaining (OIT)” value came to 1. Besides, the “Zone of Inhibition Before Leaching” value in series [1] (biocide 300 ppm) is 32 mm; in [1] (biocide 1,200 ppm) it was over 42 mm; in series [1] (biocide 4,000 ppm), over 42 mm. The “Zone of Inhibition After Leaching” value in series [1] (biocide 300 ppm) is listed as “OVERGROWTH”; in [1] (biocide 1,200 ppm) it was 1 mm; in series [1] (biocide 4,000 ppm), 1 mm. For the same compound, the figures for the “Fungal growth rating % Cover D56” value in series [2] (biocide 300 ppm), in series [2] (biocide 1,200 ppm) and in series [2] (biocide 1,400 ppm) were 85 % cover, 35 % cover and 0 % cover, respectively. Further, the entries for the “Fungal growth rating % Cover D28” value in series [3] (biocide 300 ppm), in series [3] (biocide 1,200 ppm) and in [3] (biocide 1,400 ppm) were 35 % cover, 3 % cover and 0 % cover, respectively. The results for the “Fungal growth rating % Cover D84” value in series [3] (biocide 300 ppm), in series [3] (biocide 1,200 ppm) and in series [3] (biocide 1,400 ppm) were 85 % cover, 35 % cover and 5 % cover, respectively. Besides, the “Zone of Inhibition Before Leaching (surface of paint discs examined for growth)” value in [4] was “None”. The “Zone of Inhibition After Leaching (surface of paint discs examined for growth)” value in [4] is listed as “Growth”.

With `Cn1sc(Cl)cc1=O` [CIT, 5-Chloro-2-Methyl-4-isothiazolin-3-one], the “amount of original biocide remaining (MIT, CIT, MIT/CIT)” value was found to be 100 in series [5] (0 days); 0 in series [5] (7 days); 0 in series [5] (25 days); 0 in [5] (32 days); 0 in [5] (39 days); 100 in series [7] (0 days). Moreover, the “amount of original biocide remaining (MIT, CIT, MIT/CIT)” value in series [7] (7 days) came to 80; in series [7] (12 days) it was 40; in series [7] (18 days), 30; in series [7] (26 days), 0. Further, the “water solubility relative to OIT, in words” value in series [6] is reported as “more water soluble than OIT”.
